Assay results taken from PubChem BioAssay (NCI).
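These data come from cells grown in 96-well plates and exposed to compound for 48 hours at five concentrations. At the GI50, growth is halved. TGI is the concentration that stops growth completely.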

Key:
Assay in all cases: growth of human tumour cells (NCI), 48 h
HCC-2998 colon = test system: HCC-2998 colon
IGROV1 ovarian = test system: IGROV1 ovarian
HCT-116 colon = test system: HCT-116 colon
HCT-15 colon = test system: HCT-15 colon
LOX IMVI melanoma = test system: LOX IMVI melanoma
UACC-62 melanoma = test system: UACC-62 melanoma
SF-539 CNS = test system: SF-539 CNS
SK-MEL-5 melanoma = test system: SK-MEL-5 melanoma
BT-549 breast = test system: BT-549 breast
NCI-H23 lung = test system: NCI-H23 lung
MALME-3M melanoma = test system: MALME-3M melanoma
U251 CNS = test system: U251 CNS
ACHN renal = test system: ACHN renal
EKVX NSCLC = test system: EKVX NSCLC
SNB-19 CNS = test system: SNB-19 CNS
NCI-H226 lung = test system: NCI-H226 lung
HL-60(TB) leukemia = test system: HL-60(TB) leukemia
OVCAR-3 ovarian = test system: OVCAR-3 ovarian
RPMI-8226 leukemia = test system: RPMI-8226 leukemia
NCI-H522 lung = test system: NCI-H522 lung
NCI-H460 lung = test system: NCI-H460 lung
786-0 renal = test system: 786-0 renal
NCI/ADR-RES ovarian = test system: NCI/ADR-RES ovarian
HOP-62 NSCLC = test system: HOP-62 NSCLC
MDA-MB-231 breast = test system: MDA-MB-231 breast
UO-31 renal = test system: UO-31 renal
OVCAR-4 ovarian = test system: OVCAR-4 ovarian
UACC-257 melanoma = test system: UACC-257 melanoma
SR leukemia = test system: SR leukemia
SF-295 CNS = test system: SF-295 CNS
MCF7 breast = test system: MCF7 breast
HS 578T breast = test system: HS 578T breast
PC-3 prostate = test system: PC-3 prostate
TK-10 renal = test system: TK-10 renal
KM12 colon = test system: KM12 colon
A549 NSCLC = test system: A549 NSCLC
SW-620 colon = test system: SW-620 colon
K-562 leukemia = test system: K-562 leukemia
DU-145 prostate = test system: DU-145 prostate
COLO 205 colon = test system: COLO 205 colon
A498 renal = test system: A498 renal
MDA-MB-435 = test system: MDA-MB-435
SNB-75 CNS = test system: SNB-75 CNS
MOLT-4 leukemia = test system: MOLT-4 leukemia
SK-MEL-28 melanoma = test system: SK-MEL-28 melanoma
CAKI-1 renal = test system: CAKI-1 renal
OVCAR-5 ovarian = test system: OVCAR-5 ovarian
RXF 393 renal = test system: RXF 393 renal
OVCAR-8 ovarian = test system: OVCAR-8 ovarian
CCRF-CEM leukemia = test system: CCRF-CEM leukemia
SF-268 CNS = test system: SF-268 CNS
T-47D breast = test system: T-47D breast
SK-MEL-2 melanoma = test system: SK-MEL-2 melanoma
M14 melanoma = test system: M14 melanoma
SN12C renal = test system: SN12C renal
HT29 colon = test system: HT29 colon
SK-OV-3 ovarian = test system: SK-OV-3 ovarian

COc1ccc(CN2CCc3c(Sc4ccccc4)nc(N)nc3C2=O)c(OC)c1
GI50 (HCC-2998 colon): 14.1 µM
TGI (HCC-2998 colon): 30.4 µM
GI50 (IGROV1 ovarian): 11 µM
TGI (IGROV1 ovarian): 28.9 µM
GI50 (HCT-116 colon): 3.9 µM
TGI (HCT-116 colon): 36.6 µM
GI50 (HCT-15 colon): 8.32 µM
TGI (HCT-15 colon): 39.2 µM
GI50 (LOX IMVI melanoma): 7.92 µM
TGI (LOX IMVI melanoma): 24.5 µM
GI50 (UACC-62 melanoma): 6.78 µM
TGI (UACC-62 melanoma): 21.4 µM
GI50 (SF-539 CNS): 14.4 µM
TGI (SF-539 CNS): 36.8 µM
GI50 (SK-MEL-5 melanoma): 7.35 µM
TGI (SK-MEL-5 melanoma): 22.5 µM
GI50 (BT-549 breast): 2.3 µM
TGI (BT-549 breast): 10.1 µM
GI50 (NCI-H23 lung): 4.06 µM
TGI (NCI-H23 lung): 38.4 µM
GI50 (MALME-3M melanoma): 1.58 µM
TGI (MALME-3M melanoma): 8.87 µM
GI50 (U251 CNS): 8.01 µM
TGI (U251 CNS): 27.4 µM
GI50 (ACHN renal): 7.25 µM
TGI (ACHN renal): 52 µM
GI50 (EKVX NSCLC): 4.32 µM
TGI (EKVX NSCLC): 19.9 µM
GI50 (SNB-19 CNS): 15.4 µM
TGI (SNB-19 CNS): 55.3 µM
GI50 (NCI-H226 lung): 8.55 µM
TGI (NCI-H226 lung): 27.1 µM
GI50 (HL-60(TB) leukemia): 1.56 µM
TGI (HL-60(TB) leukemia): 5.32 µM
GI50 (OVCAR-3 ovarian): 4.25 µM
TGI (OVCAR-3 ovarian): 25.7 µM
GI50 (RPMI-8226 leukemia): 1.89 µM
TGI (RPMI-8226 leukemia): 7.26 µM
GI50 (NCI-H522 lung): 3.05 µM
TGI (NCI-H522 lung): 17.7 µM
GI50 (NCI-H460 lung): 9.06 µM
TGI (NCI-H460 lung): > 100 µM
GI50 (786-0 renal): 7.62 µM
TGI (786-0 renal): > 100 µM
GI50 (NCI/ADR-RES ovarian): 4.13 µM
TGI (NCI/ADR-RES ovarian): 29.9 µM
GI50 (HOP-62 NSCLC): 18 µM
TGI (HOP-62 NSCLC): 73.4 µM
GI50 (MDA-MB-231 breast): 11 µM
TGI (MDA-MB-231 breast): 76.9 µM
GI50 (UO-31 renal): 1.45 µM
TGI (UO-31 renal): 12.8 µM
GI50 (OVCAR-4 ovarian): 4.57 µM
TGI (OVCAR-4 ovarian): 18.3 µM
GI50 (UACC-257 melanoma): 5.99 µM
TGI (UACC-257 melanoma): 22.2 µM
GI50 (SR leukemia): 2.95 µM
TGI (SR leukemia): 22.6 µM
GI50 (SF-295 CNS): 8.35 µM
TGI (SF-295 CNS): 22.7 µM
GI50 (MCF7 breast): 5.65 µM
TGI (MCF7 breast): 75.9 µM
GI50 (HS 578T breast): 16.3 µM
TGI (HS 578T breast): > 100 µM
GI50 (PC-3 prostate): 4.41 µM
TGI (PC-3 prostate): 29.1 µM
GI50 (TK-10 renal): 5 µM
TGI (TK-10 renal): 19.2 µM
GI50 (KM12 colon): 8.67 µM
TGI (KM12 colon): 32.7 µM
GI50 (A549 NSCLC): 9.49 µM
TGI (A549 NSCLC): 45.8 µM
GI50 (SW-620 colon): 6.15 µM
TGI (SW-620 colon): 41.2 µM
GI50 (K-562 leukemia): 4.3 µM
TGI (K-562 leukemia): > 100 µM
GI50 (DU-145 prostate): 8.57 µM
TGI (DU-145 prostate): 32.4 µM
GI50 (COLO 205 colon): 14.8 µM
TGI (COLO 205 colon): 47.9 µM
GI50 (A498 renal): 7.22 µM
TGI (A498 renal): 57.7 µM
GI50 (MDA-MB-435): 3.57 µM
TGI (MDA-MB-435): 16.3 µM
GI50 (SNB-75 CNS): 5.58 µM
TGI (SNB-75 CNS): 19.7 µM
GI50 (MOLT-4 leukemia): 3 µM
TGI (MOLT-4 leukemia): 16.1 µM
GI50 (SK-MEL-28 melanoma): 8.91 µM
TGI (SK-MEL-28 melanoma): 26.8 µM
GI50 (CAKI-1 renal): 3.4 µM
TGI (CAKI-1 renal): 18.3 µM
GI50 (OVCAR-5 ovarian): 39 µM
TGI (OVCAR-5 ovarian): > 100 µM
GI50 (RXF 393 renal): 2.65 µM
TGI (RXF 393 renal): 9.74 µM
GI50 (OVCAR-8 ovarian): 6.23 µM
TGI (OVCAR-8 ovarian): 30.5 µM
GI50 (CCRF-CEM leukemia): 4.53 µM
TGI (CCRF-CEM leukemia): 52.9 µM
GI50 (SF-268 CNS): 6.21 µM
TGI (SF-268 CNS): 26 µM
GI50 (T-47D breast): 3.99 µM
TGI (T-47D breast): 34.5 µM
GI50 (SK-MEL-2 melanoma): 10.1 µM
TGI (SK-MEL-2 melanoma): 32.6 µM
GI50 (M14 melanoma): 9.61 µM
TGI (M14 melanoma): 28.1 µM
GI50 (SN12C renal): 8.82 µM
TGI (SN12C renal): > 100 µM
GI50 (HT29 colon): 7.61 µM
TGI (HT29 colon): 23.6 µM
GI50 (SK-OV-3 ovarian): 21.4 µM
TGI (SK-OV-3 ovarian): 84.6 µM
